Earlier results as cited in patent US20200155524A1, “METHOD FOR REDUCING SIDE EFFECTS FROM ADMINISTRATION OF PHOSPHODIESTERASE-4 INHIBITORS” (ARCUTIS, INC., priority 2018, published 2020).
Like-named read-outs stand apart in the source and are kept apart here.

Key:
[1] = test system: psoriasis; conditions: after 4 weeks of dosing
[2] = test system: PDE-4 isoforms and subtypes; conditions: different PDE-4 isoforms and subtypes
[3] = initial oral administration

Structure (SMILES)	PASI 75 response rate [1]	half maximal inhibitory concentration (IC50) [2]	Tmax (time after administration to reach Cmax) ([3]; 250 mcg tablet)	Tmax (time after administration to reach Cmax) ([3]; 500 mcg tablet)
CCC(=O)OCC(=O)[C@@]1(OC(=O)CC)[C@@H](C)C[C@H]2[C@@H]3CCC4=CC(=O)C=C[C@]4(C)[C@@]3(F)[C@@H](O)C[C@@]21C [betamethasone dipropionate 0.064%, betamethasone dipropionate]	32.7%			
O=C(Nc1c(Cl)c[n+]([O-])cc1Cl)c1ccc(OC(F)F)c(OCC2CC2)c1 [roflumilast N-oxide, 3-cyclopropylmethoxy-4-difluoromethoxy-N-(3,5-dichloropyrid-4-yl 1-oxide)benzamide]		subnanomolar		
O=C(Nc1c(Cl)cncc1Cl)c1ccc(OC(F)F)c(OCC2CC2)c1 [roflumilast, N-(3,5-dichloropyrid-4-yl)-3-cyclopropylmethoxy-4-difluoromethoxybenzamid-e]		subnanomolar	1 h	1 h
